Here are results for seven compounds from BindingDB's records for doi:10.1016/j.ejmech.2019.05.014 (Xuzhou Medical University, 2019).

SMILES strings stand for the structures.

Assay [1] is described as follows: Inhibition of capsid protein in lamivudine/entecavir-resistant Hepatitis B virus harboring rtL180M/rtM204V/rt184L mutant infected in human HepG2.2.15 cells assessed as reduction in viral DNA level measured after 72 hrs by PCR analysis.
Assay [2] is described as follows: Inhibition of capsid protein in Hepatitis B virus infected in human HepG2.2.15 cells assessed as reduction in viral DNA level at 4 uM supplemented with fresh medium containing compound every 2 days and measured after 6 days by RT-PCR analysis.

As for `CCN(CC)CCOc1ccc2nc(SCc3ccccc3)n(Cc3cccs3)c(=O)c2c1`, the results for the IC50 in assay [1] and in assay [2] were 840 nM and 710 nM, respectively. In the same order, the values of `CN(C)CCOc1ccc2nc(SCc3ccccc3)n(Cc3cccs3)c(=O)c2c1` are 1900 nM and 1540 nM. For `COc1ccccc1CSc1nc2ccccc2c(=O)n1Cc1cccs1`, the IC50 in assay [2] was 2810 nM. On to `COc1ccccc1CSc1nc2ccc(F)cc2c(=O)n1Cc1cccs1`, for which the IC50 in assay [2] turned out to be 2480 nM. Still for that read-out and setting: to `COc1ccc(C(C)=O)cc1CSc1nc2ccccc2c(=O)n1Cc1cccs1` belongs 4070 nM; to `CCN(CC)CCOc1ccc2nc(SCc3ccccc3OC)n(Cc3cccs3)c(=O)c2c1`, 1930 nM. On to `Nc1ccn([C@@H]2CS[C@H](CO)O2)c(=O)n1` [Epivir], for which the IC50 in assay [1] is over 100000 nM; in assay [2], under 100 nM.

Broadly, the IC50 is the midpoint of a concentration-inhibition curve.
